Data from US20240217964A1, “QUINUCLIDINONE ANALOGUES AS ANTICANCER AGENTS” (Newave Pharmaceutical Inc., priority 2021, published 2024).

Key:
RS4;11-G101V cell line = assay: In vitro anti-proliferation assay (ATPlite) in RS4;11 with G101V mutation; format: cell-based; settings: about 72 hours incubation
Method: (§1) Cell antiproliferation was assayed by PerkinElmer ATPlite™ Luminescence Assay System. Briefly, the various test cancer cell lines were plated at a density of about 1×10^4 cells per well in Costar 96-well plates, and were incubated with different concentrations of compounds for about 72 hours in medium supplemented with 5% FBS or 10% normal human serum(NHS). One lyophilized substrate solution vial was then reconstituted by adding 5 mL of substrate buffer solution, and was agitated gently until the solution was homogeneous. About 50 μL of mammalian cell lysis solution was added to 100 μL of cell suspension per well of a microplate, and the plate was shaken for about five minutes in an orbital shaker at ˜700 rpm. This procedure was used to lyse the cells and to stabilize the ATP. Next, 50 μL substrate solution was added to the wells and microplate was shaken for five minutes in an orbital shaker at ˜700 rpm. Finally, the luminescence was measured by a PerkinElmer TopCount® Microplate Scintillation Counter. Such assays, carried out with a range of doses of test compounds, allowed the determination of the cellular anti-antiproliferative IC50 of the compounds of the present invention. The following table lists the IC50 values of certain compounds of the invention.
The following table lists the IC50 values of the in vitro anti-proliferation assay in RS4;11-G101V cell line.

SUP-T1 = assay: In vitro anti-proliferation assay (ATPlite) in p53 mutant cell line SUP-T1; format: cell-based; settings: Cell line SUP-T1, Mutation R273H, about 72 hours incubation
Method: as §1
(§2) The following table lists the IC50 values of another in vitro anti-proliferation assay in different p53 mutant cell lines.

DB = assay: In vitro anti-proliferation assay (ATPlite) in p53 mutant cell line DB; format: cell-based; settings: Mutation R248Q, about 72 hours incubation
Method: as §1, §2

CEM(R248Q) = assay: In vitro anti-proliferation assay (ATPlite) in p53 mutant cell line CEM(R248Q); format: cell-based; settings: Mutation R175H, about 72 hours incubation
Method: as §1, §2

KASUMI-1 = assay: In vitro anti-proliferation assay (ATPlite) in p53 mutant cell line KASUMI-1; format: cell-based; settings: Cell line KASUMI-1, Mutation R248Q, about 72 hours incubation
Method: as §1, §2

Mice PK study = format: in vivo; settings: CD-1 mouse
Method: The pharmacokinetics of compounds were evaluated in CD-1 mouse via Intravenous and Oral Administration. The IV dose was administered as a slow bolus in the Jugular vein, and oral doses were administered by gavage. The formulation for IV dosing was 5% DMSO in 20% HPBCD in water, and the PO formulation was 2.5% DMSO, 10% EtOH, 20% Cremphor EL, 67.5% D5W. The PK time point for the IV arm was 5, 15, 30 min, 1, 2, 4, 6, 8, 12, 24 hours post dose, and for PO arm was 15, 30 min, 1, 2, 4, 6, 8, 12, 24 hours post dose. Approximately 0.03 mL blood was collected at each time point. Blood of each sample was transferred into plastic micro centrifuge tubes containing EDTA-K2 and collect plasma within 15 min by centrifugation at 4000 g for 5 minutes in a 4° C. centrifuge. Plasma samples were stored in polypropylene tubes. The samples were stored in a freezer at −75±15° C. prior to analysis. Concentrations of compounds in the plasma samples were analyzed using a LC-MS/MS method. WinNonlin (Phoenix™, version 6.1) or other similar software was used for pharmacokinetic calculations. The following pharmacokinetic parameters were calculated, whenever possible from the plasma concentration versus time data: IV administration: Co, CL, Vd, T1/2, AUCinf, AUClast, MRT, Number of Points for Regression; PO administration: Cmax, Tmax, T1/2, AUCinf, AUClast, F %, Number of Points for Regression. The pharmacokinetic data was described using descriptive statistics such as mean, standard deviation.

Row | Structure (SMILES) | IC50 (RS4;11-G101V cell line) [nM] | IC50 (SUP-T1) [nM] | IC50 (DB) [nM] | IC50 (CEM(R248Q)) [nM] | IC50 (KASUMI-1) [nM] | IC50 (SUP-T1; Homo sapiens) [nM] | IC50 (DB; Homo sapiens) [nM] | IC50 (KASUMI-1; Homo sapiens) [nM] | Bioavailabilty (Mice PK study; Oral, 100 mpk) [%] | AUClas (Mice PK study; Oral, 100 mpk, plasma) | bioavailability (in words) (Mice PK study; oral)
1 | COCC1(CO)C(=O)C2CCN1CC2 (centres unmarked) [APR-246, reference compound] | 1760 |  |  |  |  |  |  |  |  |  | 
2 | COC[C@]1(CO)C(=O)[C@@H]2CC[N@@]1[C@@H](C)C2 [Example 27, (1S,2R,4R,6S)-2-(hydroxymethyl)-2-(methoxymethyl)-6-methylquinuclidin-3-one] |  | 3300 | 3300 | 1600 | 2600 |  |  |  |  |  | 
3 | COC[C@@]1(CO)C(=O)C2CCN1CC2 [ARP-246-S, (S)-2-(hydroxymethyl)-2-(methoxymethyl)quinuclidin-3-one, reference compound] |  |  |  | 495 |  | 4800 | 3000 | 1000 |  |  | 
4 | COC[C@@]1(CO)C(=O)[C@@H]2CC[N@@]1[C@@H](C)C2 [Example 18, (1S,2S,4R,6S)-2-(hydroxymethyl)-2-(methoxymethyl)-6-methylquinuclidin-3-one] | 1800 | 2600 | 2900 | 690 | 2000 |  |  |  |  |  | 
5 | COC[C@]1(CO)C(=O)[C@H]2CC[N@]1[C@H](C)C2 [Example 17, (1R,2R,4S,6R)-2-(hydroxymethyl)-2-(methoxymethyl)-6-methylquinuclidin-3-one] | 730 | 2100 | 3700 | 560 | 1000 |  |  |  | 79 | 26,093 h*ng/ml | excellent bioavailable
6 | COC[C@@]1(CO)C(=O)[C@H]2CC[N@]1[C@H](C)C2 [Example 28, (1R,2S,4S,6R)-2-(hydroxymethyl)-2-(methoxymethyl)-6-methylquinuclidin-3-one] |  | 12600 | 18400 | 4500 | 7500 |  |  |  |  |  | 
